The values below come from patent publication US5616615A, “Enaminone esters” (priority 1995, dated 1997).

Series [1] relates to Corneal Kindled rats. Set-up: ED50 (reduction from Stage 5 to Stage 4): unit not given beside the values. To be noted: po, 1 h, data provided by the ADD Program; 30 min; cited from earlier work.
The test system of series [2] is Subcutaneous Pentylenetetrazol seizure. The experiment in a line: sc Met subcutaneous pentylenetetrazol (Metrazol) seizure test, mice. The format is in vivo. The conditions noted are these: Mus musculus, sc, read-out: scMet, animals protected/tested (converted).
Description: 2. sc Met--Subcutaneous Pentylenetetrazol (Metrazol^R) Seizure Test
The animal is observed for 30 minutes. Failure to observe even a threshold seizure (a single episode of clonic spasms of at least 5 seconds duration) is defined as protection and the results are expressed as the number of animals protected/the number of animals tested.
For series [3], the system named is Maximal electroshock seizures. In words: Phase VI oral MES test, rats. The class given is in vivo. The conditions noted are these: for responders at 50 mg/kg / responders at 60 mg/kg: Rattus norvegicus, read-out: MES, animals protected/tested (converted). The source says:
(§1) Maximal electroshock seizures are elicited with a 60-cycle alternating current of 50 mA intensity (5-7 times that necessary to elicit minimal electroshock seizures) delivered via corneal electrodes for 0.2 seconds. A drop of 0.9% saline is instilled in the eye prior to application of the electrodes in order to […].
(§2) This oral screen is designated as phase VI.

The subject of series [4] is Maximal electroshock seizures. The experiment in a line: MES maximal electroshock seizure test, mice ip. The class given is in vivo. More on the design: TPE (time of peak effect), activity: unit not given here. The conditions noted are these: for responders at 10 mg/kg / responders at 100 mg/kg: read-out: MES, animals protected/tested (converted); for anti-MES protecting ability: Phase I. The protocol:
Three tests were performed:
1. MES--Electroshock Seizure Test
as §1
(The maximal electroshock test induces tonic seizures with an electrical stimulus.)

Series [5] has as its system seizures. In words: Anticonvulsant evaluation (ASP phase I / overall). The format is in vivo, mice. The conditions noted are these: for minimal effective dose: Mus musculus, ip, Phase I, read-out: ASP Classification. In short, it runs like this:
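Male Carworth Farms #1 mice; maximal electroshock seizures elicited by 60-cycle AC, 50 mA, 0.2 s via corneal electrodes after a drop of 0.9% saline in the eye. Animals observed for 30 minutes.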

Series [6] in a line: in vivo. To be noted: mouse, in vivo. The protocol:
The first phase of the ADD Program involved performing tests on male Carworth Farms #1 mice. […] Three tests were performed:
In the second phase of the ADD program protocol, estimates of anticonvulsant activity and neurotoxicity are quantified. The median effective dose (ED50) in the MES, sc Met, and rotorod test is determined. In the case of a compound with apparent activity in only one anticonvulsant test, testing is carried out in the other up to, and in some cases beyond, doses which produce neurological deficit. Compounds which fail to produce minimal neurological deficit are tested whenever possible to doses ten times their lowest anticonvulsant ED50. […] The rotorod ED50 is determined at the time of the peak neurologic deficit.

The nature of series [7]: in vivo. To be noted: rat, po.
Description: as §2

Series [8] in a line: Neurotoxicity, rats ip. The conditions noted are these: 100 mg/kg.
Description: The rotorod test is used to elevate neurotoxicity. The animal is placed on a 1 inch diameter knurled plastic rod rotating at 6 rpm. […] Neurologic toxicity is defined as the failure of the animal to remain on the rod for 1 minute and the results are expressed as the number of animals protected/the number of animals tested.
The toxicity evaluation for the commercial agents as previously indicated was based on the onset of ataxia.
Where [9] appears, read: Mus musculus, ip, 0.25 h, mice ip, 0.25 h.
Where [10] appears, read: Mus musculus, ip, 0.5 h, 30 min.
[11] abbreviates: Mus musculus, ip, 0.5 h, 30 min, read-out: MES, animals protected/tested.
The mark [12] stands for this setting: Mus musculus, ip, 0.5 h, mice ip, 0.50 h.
Setting [13] is: Mus musculus, ip, 1 h, mice ip, 1.00 h.
[14] abbreviates: Mus musculus, ip, 2 h, mice ip, 2.00 h.
The mark [15] stands for this setting: Mus musculus, ip, 4 h, 4 h, read-out: MES, animals protected/tested.
[16] abbreviates: Mus musculus, ip, 4 h, mice ip, 4.00 h.

Like-named read-outs stand apart in the source and are kept apart here.

In the case of `O=C1CN=C(c2ccccc2Cl)c2cc([N+](=O)[O-])ccc2N1` [clonazepam], the “ED50 (reduction from Stage 5 to Stage 4)” value in series [1] is listed as 0.70.
For the molecule `CCOC(=O)C1C(=O)C=C(Nc2ccc(C(F)(F)F)cc2)CC1C` (stereo not drawn) [Compound 131], the responders at 100 mg/kg in series [2] (0.5 h, 30 min) was 0%; in series [2] (4 h, 4 h) it was 0%; in series [4] (setting [10]), 100%; in series [4] (Mus musculus, ip, 4 h, 4 h) it was 0%. The responders at 300 mg/kg was 0% in series [2] (0.5 h, 30 min); 0% in series [2] (4 h, 4 h); 100% in series [4] (setting [11]); 100% in series [4] (setting [15]). Moreover, the responders at 50 mg/kg in series [3] (0.5 h, oral, 0.50 h) is 100%; in series [3] (oral, 0.25 h), 100%; in series [3] (oral, 1.00 h), 100%; in series [3] (oral, 2.00 h) it was 100%. The responders at 10 mg/kg was 100% in series [4] (setting [9]); 75% in series [4] (setting [12]); 100% in series [4] (setting [13]); 50% in series [4] (setting [14]); 50% in series [4] (setting [16]). The “anti-MES protecting ability” value in series [4] is recorded as “showed anti-MES protecting ability”. Also, the minimal effective dose in series [5] was under 100 mg/kg. Further, the “Tox, animals toxic/tested” value is given as 0/8 in series [6] (ip, 100 mg/kg) and 0/4 in series [7] (50 mg/kg).
Take `CCOC(=O)C1C(=O)C=C(Nc2ccc([N+](=O)[O-])cc2)CC1C` (stereo not drawn) [Compound 127]: the responders at 100 mg/kg in series [2] (0.5 h, 30 min) is 0%; in series [2] (4 h, 4 h), 0%; in series [4] (setting [10]), 100%; in series [4] (Mus musculus, ip, 4 h, 4 h), 0%. The responders at 300 mg/kg was 50% in series [2] (0.5 h, 30 min, second trial); 100% in series [2] (0.5 h, 30 min); 0% in series [2] (4 h, 4 h); 100% in series [4] (setting [11]); 0% in series [4] (setting [15]). Moreover, the responders at 50 mg/kg in series [3] (0.5 h, oral, 0.50 h) is 50%; in series [3] (oral, 0.25 h) it was 25%; in series [3] (oral, 1.00 h), 100%; in series [3] (oral, 2.00 h), 50%; in series [3] (oral, 4.00 h), 25%. Further, the responders at 3 mg/kg in series [4] (Mus musculus, ip, 0.5 h, Phase II, 3 mg/kg, 0.50 h, read-out: MES, animals protected/tested) came to 0%. Moreover, the responders at 10 mg/kg in series [4] (Mus musculus, ip, 0.5 h, Phase II, 0.50 h) is 0%. In addition, the minimal effective dose in series [5] was under 100 mg/kg. The “Tox (rotorod), animals toxic/tested” value in series [6] (3 mg/kg) and in series [6] (10 mg/kg) was 0/4 in each case. In series [7] (50 mg/kg), the “Tox, animals toxic/tested” value is 0/4.
On to `CCOC(=O)C1C(=O)C=C(Nc2ccc(CC)cc2)CC1C` (stereo not drawn) [Compound 126], for which the responders at 300 mg/kg was 0% in series [2] (0.5 h, 30 min); 0% in series [2] (4 h, 4 h); 100% in series [4] (setting [11]); 0% in series [4] (setting [15]). Further, the responders at 50 mg/kg in series [3] (0.5 h, oral, 0.50 h) is 75%; in series [3] (oral, 0.25 h), 50%; in series [3] (oral, 1.00 h) it was 75%; in series [3] (oral, 2.00 h) it was 75%; in series [3] (oral, 4.00 h), 50%. Further, the responders at 100 mg/kg was 100% in series [4] (Mus musculus, ip, 0.25 h, Phase II, 0.25 h) and 0% in series [4] (Mus musculus, ip, 1 h, Phase II, 1.00 h). The minimal effective dose in series [5] is over 100 mg/kg. The “Tox (rotorod), animals toxic/tested” value in series [6] (100 mg/kg) was 0/2. In addition, in series [7] (50 mg/kg), the “Tox, animals toxic/tested” value is on record as 0/4.
Take `CC1(C)CC(=O)C=C(Nc2ccccc2)C1` [Compound 36]: the responders at 100 mg/kg in series [2] (0.5 h, 30 min) is 0%; in series [2] (4 h, 4 h), 0%; in series [4] (setting [10]), 66.7%; in series [4] (Mus musculus, ip, 4 h, 4 h), 0%. Besides, the responders at 300 mg/kg is 0% in series [2] (0.5 h, 30 min); 0% in series [2] (4 h, 4 h); 100% in series [4] (setting [11]); 0% in series [4] (setting [15]). Besides, the 50% effective dose (ED50) in series [3] (Phase VI, oral, rat) was found to be 30.1 mg/kg; in series [4] (Mus musculus, Phase II, ip, time of peak effect), 109 mg/kg. For the same molecule, in series [3] (Phase VI, rats), the “anticonvulsant activity over time” value is given as “anticonvulsant activity is lost after 1 hour”. The responders at 60 mg/kg is 75% in series [3] (0.5 h, oral, 0.50 h); 75% in series [3] (oral, 0.25 h); 0% in series [3] (oral, 1.00 h); 0% in series [3] (oral, 2.00 h); 0% in series [3] (oral, 4.00 h). In addition, the “TPE (time of peak effect), activity” value in series [4] (Phase II, ip) came out at 0.5. In addition, the animals displaying neurotoxicity/tested in series [8] (0.25 h (Table X-A)) is recorded as 5/8; in series [8] (0.50 h (Table X-A)), 7/8; in series [8] (1.00 h (Table X-A)), 6/8; in series [8] (2.00 h (Table X-A)) it was 6/8; in series [8] (4.00 h (Table X-A)), 3/8; in series [8] (6.00 h (Table X-A)), 3/8. For the same molecule, in series [8] (24.00 h (Table X-A)), the animals displaying neurotoxicity/tested was 0/8. Moreover, the minimal effective dose in series [5] was under 100 mg/kg. The “anticonvulsant activity” value in series [5] (mouse, in vivo) is given as “potent anticonvulsants”. Also, the “protective index” value in series [6] is “modest”. Moreover, the TD50 is 233 mg/kg in series [6] (ip) and over 250 mg/kg in series [7]. For the same molecule, in series [6] (ip), the “TPE (time of peak effect), toxicity” value is 0.5. Also, the selectivity ratio in series [6] (ip) stood at 2.13; in series [7] it was 8.3. The “Tox, animals toxic/tested” value in series [7] (60 mg/kg) is on record as 0/4.
Consider `CCOC(=O)C1C(=O)C=C(Nc2ccc(Br)cc2)CC1C` (stereo not drawn) [Compound 123], for which the responders at 100 mg/kg in series [2] (0.5 h, 30 min) was 0%; in series [2] (4 h, 4 h) it was 0%; in series [4] (setting [10]), 100%; in series [4] (Mus musculus, ip, 4 h, 4 h), 66.7%. Further, the responders at 300 mg/kg in series [2] (0.5 h, 30 min) is 0%; in series [2] (4 h, 4 h) it was 0%; in series [4] (setting [11]), 100%; in series [4] (setting [15]) it was 100%. Moreover, the responders at 50 mg/kg in series [3] (0.5 h, oral, 0.50 h) is 100%; in series [3] (oral, 0.25 h), 100%; in series [3] (oral, 1.00 h), 100%; in series [3] (oral, 2.00 h) it was 100%; in series [3] (oral, 4.00 h), 100%. Further, the responders at 10 mg/kg was 75% in series [4] (setting [9]); 75% in series [4] (setting [12]); 75% in series [4] (setting [13]); 50% in series [4] (setting [14]); 0% in series [4] (setting [16]). Moreover, in series [4], the “anti-MES protecting ability” value is “showed anti-MES protecting ability”. Also, the minimal effective dose in series [5] is under 100 mg/kg. Also, the “Tox, animals toxic/tested” value in series [6] (ip, 100 mg/kg) is on record as 0/8; in series [7] (50 mg/kg), 0/4.

A word on the ED50: it is the midpoint of the dose-response relation.
